Source: patent US9102588B2, “Fungicide N-cycloalkyl-N-bicyclic-carboxamide derivatives” (priority 2007, dated 2015)

Experiment: logP
Type: physicochemical
Conditions: intermediate amines of formula (II)

Row | logP | SMILES
1 | 0.32 | c1ccc2c(c1)OCCC2NC1CC1 (stereo not shown) [Example 175]
2 | 0.81 | CC1Cc2ccccc2C1NC1CC1 (stereo not shown) [Example 171]
3 | 1.26 | CC1(C)CCC(NC2CC2)c2ccccc21 (racemic) [Example 178]
4 | 1.15 | CC1(C)CC(NC2CC2)c2ccccc21 (stereo not shown) [Example 174]
5 | 0.67 | c1ccc2c(c1)SCCC2NC1CC1 (racemic) [Example 177]
6 | 1.22 | COc1cc2c(cc1OC)C(NC1CC1)C(C)(C)CO2 (stereo not shown) [Example 167]
7 | 0.83 | Clc1ccc2c(c1)C(NC1CC1)CCO2 (stereo not shown) [Example 176]
